These results are taken from PubChem BioAssay (NCI).

The structures appear in SMILES notation.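 48-hour exposure; five concentrations; linearly interpolated endpoints. GI50 = concentration required for 50% inhibition of growth. TGI: total growth inhibition.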 Bounds are passed on as bounds.

Some test systems named below: BT-549 breast; DU-145 prostate; HCT-116 colon; MCF7 breast; PC-3 prostate; T-47D breast; DMS 273 small cell lung; KM20L2 colon; M19-MEL melanoma; HOP-18 NSCLC.
Holding throughout (experiment): NCI tumour cell line growth inhibition, 48 h

For the compound `O=C(Oc1ccccc1)C(Br)C(Br)c1ccccc1` (configuration not stated), the GI50 was 11.7 µM in the assay with BT-549 breast; 3.18 µM with DU-145 prostate; 1.8 µM in the assay on HCT-116 colon; 1.68 µM in the assay on MCF7 breast; 14.9 µM with PC-3 prostate; 2.62 µM in the assay on T-47D breast. For the same compound, the TGI in the assay with BT-549 breast was 25.6 µM; with DU-145 prostate, 9.38 µM; with HCT-116 colon, 3.54 µM; in the assay with MCF7 breast it was 11.4 µM; with PC-3 prostate, 30.1 µM; in the assay on T-47D breast, 6.23 µM.
Regarding `O=C(CN(/C=C/C(=O)C(F)(F)F)c1ccccc1)c1ccc(Cl)cc1`, the GI50 in the assay with BT-549 breast was 31.2 µM; with DU-145 prostate it was 37.7 µM; in the assay on HCT-116 colon it was 12 µM; with MCF7 breast, 24.5 µM; with PC-3 prostate, 16.1 µM; in the assay with T-47D breast it was 30 µM. Also, the TGI with BT-549 breast is 91.9 µM; in the assay with DU-145 prostate, more than 100 µM; in the assay on HCT-116 colon it was 24.5 µM; with MCF7 breast, 67.1 µM; in the assay with PC-3 prostate, 34.2 µM; in the assay with T-47D breast, more than 100 µM.
As for `O=c1[nH]c(=O)n(C2CC(O)C(CO)O2)cc1COCC(F)(F)F` (configuration not stated), the TGI in the assay on DMS 273 small cell lung, in the assay with KM20L2 colon and in the assay on M19-MEL melanoma was more than 100 µM throughout.
For the compound `COc1cc2c(c(OC)c1OC)-c1ccc(SC)c(=O)cc1C(CC(=O)Oc1cccc(F)c1)C2` (configuration not stated), the TGI in the assay with HCT-116 colon is 1.06 µM; with HOP-18 NSCLC, more than 100 µM; with KM20L2 colon it was 0.225 µM; in the assay on M19-MEL melanoma, 16.2 µM.
Regarding `COC(=O)N/N=C(\C)C(CN(C)C)C(c1ccccc1)c1c(O)c2ccccc2oc1=O` (configuration not stated), the TGI in the assay with DMS 273 small cell lung, in the assay on HCT-116 colon, in the assay on KM20L2 colon and with M19-MEL melanoma was more than 100 µM in each case.
Turning to `COc1cc(-c2nccc3cc4c(cc23)OCO4)cc(OC)c1OC`, the GI50 was 16.6 µM in the assay with BT-549 breast; 3.87 µM in the assay with DU-145 prostate; 4.56 µM in the assay with HCT-116 colon; 2.88 µM in the assay with MCF7 breast; 4.25 µM with PC-3 prostate; 5.25 µM in the assay with T-47D breast. For the same compound, the TGI with BT-549 breast, in the assay on DU-145 prostate, in the assay on HCT-116 colon, in the assay on MCF7 breast, in the assay with PC-3 prostate and in the assay on T-47D breast was more than 100 µM each time.
As for `C/C(=N\NC(N)=S)c1sc(-n2nc(-c3ccccc3)cc2-c2ccccc2)nc1C`, the TGI in the assay with BT-549 breast, in the assay with DU-145 prostate, in the assay on HCT-116 colon, in the assay on MCF7 breast, with PC-3 prostate and with T-47D breast was more than 100 µM each time.
Consider `CC(=O)O[C@H](C[C@H](C(C)C)N(C)C(=O)[C@@H](NC(=O)[C@H]1CCCCN1C)C(C)C)c1cccc(C(=O)N[C@@H](Cc2ccccc2)C[C@H](C)C(=O)O)n1`, for which the GI50 was 0.0154 µM with BT-549 breast; 0.0263 µM in the assay with DU-145 prostate; 0.0222 µM in the assay with HCT-116 colon; 0.00992 µM in the assay with MCF7 breast; 0.0321 µM in the assay on PC-3 prostate; 0.0818 µM with T-47D breast. The TGI in the assay on BT-549 breast was 0.48 µM; in the assay with DU-145 prostate, 1.49 µM; with HCT-116 colon, more than 8.59 µM; in the assay on MCF7 breast it was more than 25 µM; in the assay on PC-3 prostate it was more than 25 µM; with T-47D breast, more than 25 µM.
Take `CN1CCN(CCCOc2cccc3nc(Nc4ccc(F)c(F)c4)ccc23)CC1`: the GI50 is 4.34 µM in the assay on BT-549 breast; 4.32 µM with DU-145 prostate; 3.8 µM in the assay on HCT-116 colon; 3.33 µM with MCF7 breast; 3.83 µM in the assay with PC-3 prostate; 3.39 µM with T-47D breast. Also, the TGI with BT-549 breast was 8.85 µM; in the assay with DU-145 prostate it was 8.67 µM; in the assay on HCT-116 colon, 7.87 µM; in the assay with MCF7 breast, 7.88 µM; in the assay with PC-3 prostate, 8.43 µM; in the assay with T-47D breast it was 9.26 µM.
In the case of `C=Cc1c(C)c2cc3[nH]c(cc4nc(cc5nc(cc1[nH]2)C(C)=C5CCC(=O)N(CC)CC)C(CCC(=O)N(CC)CC)=C4C)c(C)c3C=C`, the TGI with HCT-116 colon, in the assay with KM20L2 colon and in the assay with M19-MEL melanoma was more than 100 µM in each case.
For `O=c1c2cccnc2ncn1CCCN1CCCC1`, the TGI in the assay with DMS 273 small cell lung, with HCT-116 colon and in the assay on M19-MEL melanoma was more than 100 µM in each case.
With `CCn1c(CSc2nc(-c3ccccc3)c(-c3ccccc3)[nH]2)n[nH]c1=S`, the TGI with DMS 273 small cell lung, in the assay with HCT-116 colon, with KM20L2 colon and in the assay with M19-MEL melanoma was more than 100 µM in each case.
Turning to `Cc1ccc(C2C(Cl)C(=O)N2NC(=O)c2ccc(N)cc2)cc1` (configuration not stated), the TGI was 17.4 µM with DMS 273 small cell lung, 28.3 µM with HCT-116 colon, 48.2 µM with KM20L2 colon and 38.9 µM with M19-MEL melanoma.
Regarding `Cn1cncc1-c1c(F)cncc1NC(=O)c1c(N)nn2cc(F)cnc12`, the GI50 in the assay with BT-549 breast is 0.838 µM; with DU-145 prostate it was 0.803 µM; in the assay on HCT-116 colon it was 2.07 µM; in the assay on MCF7 breast, 0.0515 µM; with PC-3 prostate, 3.41 µM; with T-47D breast it was 4.32 µM. Further, the TGI in the assay with BT-549 breast is 15.4 µM; in the assay with DU-145 prostate it was 49.3 µM; in the assay with HCT-116 colon it was 16.3 µM; in the assay with MCF7 breast it was 56.4 µM; with PC-3 prostate it was more than 100 µM; with T-47D breast it was more than 100 µM.
Regarding `CCc1nc2cc(/C=C/C(=O)NO)ccc2c(=O)n1CCc1ccc(OC)cc1`, the GI50 is 4.02 µM in the assay on BT-549 breast; 2.19 µM in the assay with DU-145 prostate; 1.59 µM in the assay on HCT-116 colon; 2.38 µM in the assay with MCF7 breast; 3.32 µM with PC-3 prostate; 1.57 µM in the assay with T-47D breast. In addition, the TGI with BT-549 breast was 34.6 µM; in the assay on DU-145 prostate, 10.3 µM; with HCT-116 colon, 9.51 µM; in the assay with MCF7 breast it was 17.7 µM; in the assay on PC-3 prostate it was more than 100 µM; with T-47D breast, 7.13 µM.
As to `Cc1c(C)c2c(c(C)c1OCC(=O)O)CC[C@@](C)(CCC[C@@H](C)CCC[C@@H](C)CCCC(C)C)O2`, the GI50 in the assay with BT-549 breast was 71.7 µM; in the assay with DU-145 prostate, 75.7 µM; with HCT-116 colon, 33.2 µM; with MCF7 breast, 74.6 µM; in the assay on PC-3 prostate, 34.9 µM; in the assay on T-47D breast it was 51.7 µM. Besides, the TGI in the assay on BT-549 breast came to 151 µM; in the assay on DU-145 prostate, 147 µM; in the assay on HCT-116 colon, 108 µM; with MCF7 breast it was 199 µM; with PC-3 prostate, 106 µM; in the assay with T-47D breast, 171 µM.
